Test results from US12605464B2, “Cyclohexane lipidoids for nucleic acid transfection and use thereof” (USTAV ORGANICKE CHEMIE A BIOCHEMIE AV CR V.V.I., priority 2021, dated 2026).

How the values were obtained:
HEK293T = assay: Cellular toxicity of LNPs, CellTiterGlo 2.0 cell viability assay; assay type: cell-based, human; settings: 100 μM total lipid components, 24 hours, normalized to non-transfected cells
Protocol: (§1) A human cell line derived from embryonic kidney cells expressing SV40 large T antigen (HEK293T), and human hepatocyte carcinoma cell line (HepG2) were cultured in 96-well plates (5×10^4 cells in […] of culture medium per well) in Dulbecco's modified medium (DMEM) supplemented with 10% foetal bovine serum (FBS) at 37° C. in 5% CO2. Cells were transfected with 2 μl of LNPs B07-B12 generated in triplicates in Example 20 (the final total concentration of all lipid components in the well was 20 μM) or 10 μl of LNPs (the final total concentration of all lipid components in the well was 100 μM) and subsequently incubated for 24 hours. The cytotoxicity of LNPs was analyzed in a CellTiterGlo 2.0 cell viability assay (Promega, USA). Cell viability was normalized to non-transfected cells (control).

HepG2 = assay: as above; assay type: cell-based, human; settings: HepG2, 100 μM total lipid components, 24 hours, normalized to non-transfected cells
Protocol: as §1

SMILES: CCCCCCCCCCCCN(CCCCCCCCCCCC)CCCNC(=O)c1cc(C(=O)NCCCN(CCCCCCCCCCCC)CCCCCCCCCCCC)cc(C(=O)NCCCN(CCCCCCCCCCCC)CCCCCCCCCCCC)c1 [TT3]
- Cytotoxicity expressed as cell viability (%) (HEK293T): 27%
- Cytotoxicity expressed as cell viability (%) (HepG2): 15%
